Values after ≈ are worked out from the molar mass of the structure shown.
Key:
Mtb 5 = assay type: cell-based, Mycobacterium tuberculosis; details: XDR strain
Mtb 56 = assay type: cell-based, Mycobacterium tuberculosis; details: MDR strain
Mtb 276 = assay type: cell-based, Mycobacterium tuberculosis; details: MDR strain
Mtb 365 = assay type: cell-based, Mycobacterium tuberculosis; details: MDR strain
Mtb 352 = assay type: cell-based, Mycobacterium tuberculosis; details: MDR strain
Mtb = experiment: M. tuberculosis MIC, microtiter broth dilution (Table 6); assay type: cell-based, Mycobacterium tuberculosis; details: for MIC: Mycobacterium tuberculosis
Method: (§1) (provided by Leonid Heifets).
(§2) Each isolate was tested in duplicate.

Mtb C-31 = assay type: cell-based, Mycobacterium tuberculosis; details: MDR strain
Mtb Erdman = Mtb Erdman MIC, microtiter broth dilution; assay type: cell-based, Mycobacterium tuberculosis
Method: as §1, §2

MtbDHFR = MtbDHFR (Mycobacterium tuberculosis (strain ATCC 25618 / H37Rv), UniProt P9WNX1); experiment: M. tuberculosis DHFR enzyme inhibition; assay type: biochemical
Sa(H30N) strain [1] = test system: Sa(H30N) strain
[2] = test system: S. aureus ATCC strain 43300; experiment: microbe, parasite or virus in culture; assay type: cell-based, Staphylococcus aureus; details: for MIC Sa43300: Table 12, wild-type strain; for MIC: Staphylococcus aureus, ATCC43300, read-out: MIC Sa43300
Sa43300 [3] = details: previously reported studies, S. aureus 43300; cited from earlier work
Sa(H30N) strain [4] = experiment: microbe, parasite or virus in culture; details: Staphylococcus aureus, read-out: MIC Sa(H30N)
Sa43300 [5] = assay type: cell-based, Staphylococcus aureus; details: progenitor Sa43300, 6× MIC
[6] = test system: methicillin-resistant S. aureus (MRSA); details: background; cited from earlier work
[7] = test system: wild-type Gram-negative E. coli; details: background; cited from earlier work
[8] = test system: E. coli, efflux pumps genetically deleted; details: background; cited from earlier work

Row | Compound | MIC Mtb 5 (Mtb 5) [µg/mL] | MIC Mtb56 (Mtb 56) [µg/mL] | MIC Mtb 365 (Mtb 365) [µg/mL] | MIC Mtb 352 (Mtb 352) [µg/mL] | MIC Mtb (Mtb) [µg/mL] | MIC Mtb C-31 (Mtb C-31) [µg/mL] | MIC Mtb Erdman (Mtb Erdman) [µg/mL] | MIC Sa(H30N) (Sa(H30N) strain [1]) [µg/mL] | MIC Sa43300 [2] [µg/mL] | also measured
1 | CCc1nc(N)nc(N)c1C#CC(C)c1cc2c(c(-c3cncn3C)c1)OCO2 (stereo not shown) [Compound 54] | 8 (≈ 20.5 µM) | 8 (≈ 20.5 µM) | 8 (≈ 20.5 µM) | 4 (≈ 10.2 µM) | 2 (≈ 5.12 µM) | 8 (≈ 20.5 µM) | 4 (≈ 10.2 µM) | – | – | MIC Mtb 276 (Mtb 276): 4 µg/mL (≈ 10.2 µM)
2 | CCc1nc(N)nc(N)c1C#C[C@H](C)c1cc2c(c(-c3ccncc3)c1)OCO2 [Compound 55] | 8 (≈ 20.6 µM) | 8 (≈ 20.6 µM) | 4 (≈ 10.3 µM) | 8 (≈ 20.6 µM) | 4 (≈ 10.3 µM) | 16 (≈ 41.3 µM) | 8 (≈ 20.6 µM) | – | – | MIC Mtb 276 (Mtb 276): 8 µg/mL (≈ 20.6 µM); IC50 (MtbDHFR): 206 nM
3 | CCc1nc(N)nc(N)c1C#CCc1cc(-c2cncn2C)ccc1OC [Compound 56] | 4 (≈ 11 µM) | 4 (≈ 11 µM) | 4 (≈ 11 µM) | 4 (≈ 11 µM) | 2 (≈ 5.52 µM) | 8 (≈ 22.1 µM) | 4 (≈ 11 µM) | – | – | MIC Mtb 276 (Mtb 276): 4 µg/mL (≈ 11 µM); IC50 (MtbDHFR): 126 nM
4 | CCc1nc(N)nc(N)c1C#C[C@@H](C)c1cc(-c2ccncc2)ccc1OC [Compound 57] | – | – | – | – | 2 (≈ 5.36 µM) | – | – | – | – | IC50 (MtbDHFR): 73 nM
5 | CCc1nc(N)nc(N)c1C#CC(C)c1cc(OC)cc(-c2ccc(C(=O)O)cc2)c1 (stereo not shown) [Compound 58] | 0.25 (≈ 0.6 µM) | 0.06 (≈ 0.144 µM) | <0.03 | 0.06 (≈ 0.144 µM) | <0.03 | 8 (≈ 19.2 µM) | <0.03 | – | – | –
6 | CCc1nc(N)nc(N)c1C#CCc1ccc(OC)c(-c2ccc(C(=O)O)cc2)c1 [Compound 59] | 2 (≈ 4.97 µM) | 0.5 (≈ 1.24 µM) | 0.125 (≈ 0.311 µM) | 0.5 (≈ 1.24 µM) | 0.5 (≈ 1.24 µM) | 8 (≈ 19.9 µM) | 0.5 (≈ 1.24 µM) | – | – | IC50 (MtbDHFR): 460 nM
7 | CCc1nc(N)nc(N)c1C#CCc1cc(OC)c(OC)c(-c2ccncc2)c1 [Compound 60] | – | – | – | – | – | – | – | 0.625 (≈ 1.6 µM) | 0.0195 (≈ 0.0501 µM) | –
8 | CCc1nc(N)nc(N)c1C#CC(C)c1cc(OC)cc(-c2ccncc2)c1 (stereo not shown) [Compound A] | – | – | – | – | – | – | – | – | – | mutation frequencies of mutants F98Y and F98I (Sa43300 [3]): 10^−10; MIC [2]: 0.0781 µg/mL (≈ 0.209 µM); MIC (Sa(H30N) strain [4]): 2.5 µg/mL (≈ 6.69 µM); Mutational Frequency of DHFR mutation F98Y (Sa43300 [5]): 3.11 × 10^−11; Mutational Frequency of DHFR mutation H30N (Sa43300 [5]): 4.67 × 10^−11; Mutational Frequency of DHFR mutation H149R (Sa43300 [5]): 1.65 × 10^−10
9 | CCc1nc(N)nc(N)c1C#CC(C)c1cc2c(c(-c3ccncc3)c1)OCO2 (stereo not shown) [Compound B, reference compound] | – | – | – | – | – | – | – | 5 (≈ 12.9 µM) | 0.0781 (≈ 0.202 µM) | –
10 | CCc1nc(N)nc(N)c1C#CC(C)c1cc(OC)cc(-c2ccncc2)c1 (stereo not shown) [Compound D, reference compound] | – | – | – | – | – | – | – | 0.625 (≈ 1.67 µM) | 0.0391 (≈ 0.105 µM) | –
11 | CCc1nc(N)nc(N)c1C#C[C@@H](C)c1cc(-c2ccncc2)ccc1OC [E, reference compound] | – | – | – | – | – | – | – | 0.625 (≈ 1.67 µM) | 0.0195 (≈ 0.0522 µM) | –
12 | CCc1nc(N)nc(N)c1C#CC(C)c1cc2c(c(-c3ccncc3)c1)OCO2 (stereo not shown) [F, reference compound] | – | – | – | – | – | – | – | 2.5 (≈ 6.45 µM) | 0.0195 (≈ 0.0503 µM) | –
13 | NNC(=O)c1ccncc1 [INH, Isoniazid, reference compound] | – | – | – | – | – | – | – | – | – | MIC (Mtb): 0.03 µg/mL (≈ 0.219 µM); MIC (Mtb Erdman; Mycobacterium tuberculosis, ERDMAN): 0.125 µg/mL (≈ 0.911 µM)
14 | COc1cc(Cc2cnc(N)nc2N)cc(OC)c1OC [TMP, trimethoprim] | – | – | – | – | – | – | – | – | – | MIC MRSA [6]: 0.3125 µg/mL (≈ 1.08 µM); MIC E. coli [7]: 0.3125 µg/mL (≈ 1.08 µM); MIC [2]: 0.312 µg/mL (≈ 1.08 µM); MIC (Sa(H30N) strain [4]): 2.5 µg/mL (≈ 8.61 µM); MIC (Mtb): 256 µg/mL (≈ 882 µM)
15 | CN(Cc1cnc2nc(N)nc(N)c2n1)c1ccc(C(=O)N[C@@H](CCC(=O)O)C(=O)O)cc1 [methotrexate] | – | – | – | – | – | – | – | – | – | MIC50 MRSA [6]: 20 µg/mL (≈ 44 µM); MIC90 MRSA [6]: 100 µg/mL (≈ 220 µM); MIC wild-type E. coli [7]: over 1 mM; MIC E. coli, efflux pumps genetically deleted [8]: 64 to 256 µM

From US10870625B2, “Zwitterionic propargyl-linked antifolates useful for treating bacterial infections” (THE UNIVERSITY OF CONNECTICUT, priority 2016, dated 2020)
